For one assay, the target named is T1, full length dynamin I (Ovis aries, UniProt A0ACI6NZN1).
T1 sequence (A0ACI6NZN1 1-864): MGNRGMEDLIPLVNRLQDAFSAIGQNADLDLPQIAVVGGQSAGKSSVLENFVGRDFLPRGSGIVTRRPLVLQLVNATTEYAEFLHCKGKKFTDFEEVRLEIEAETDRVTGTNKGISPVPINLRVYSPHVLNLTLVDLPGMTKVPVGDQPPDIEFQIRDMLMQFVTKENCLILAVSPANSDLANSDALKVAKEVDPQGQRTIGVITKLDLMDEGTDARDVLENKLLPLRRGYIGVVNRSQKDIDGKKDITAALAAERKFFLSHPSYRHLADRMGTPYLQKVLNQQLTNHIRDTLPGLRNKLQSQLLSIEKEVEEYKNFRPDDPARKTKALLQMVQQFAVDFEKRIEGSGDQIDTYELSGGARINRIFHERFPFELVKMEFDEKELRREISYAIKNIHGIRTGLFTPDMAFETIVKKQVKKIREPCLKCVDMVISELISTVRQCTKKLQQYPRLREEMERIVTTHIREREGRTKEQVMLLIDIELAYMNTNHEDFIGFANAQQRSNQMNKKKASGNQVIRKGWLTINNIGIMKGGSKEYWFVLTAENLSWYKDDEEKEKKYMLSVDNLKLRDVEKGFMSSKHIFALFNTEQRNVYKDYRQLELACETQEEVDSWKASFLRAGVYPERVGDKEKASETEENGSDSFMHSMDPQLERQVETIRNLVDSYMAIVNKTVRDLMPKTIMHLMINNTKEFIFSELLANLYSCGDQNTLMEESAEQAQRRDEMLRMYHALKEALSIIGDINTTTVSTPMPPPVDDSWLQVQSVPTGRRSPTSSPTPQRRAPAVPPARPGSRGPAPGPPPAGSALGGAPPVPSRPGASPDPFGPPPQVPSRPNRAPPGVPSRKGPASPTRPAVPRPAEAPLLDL
Kind of assay: Basal dynamin GTPase activity in the absence of PS liposomes or other template (ring stabilizer activity). The settings on record: for stimulation of basal dynamin GTPase activity in the presence of Tween-80: dynI 200 nM, Tween-80 0.06%, Bis-T series 10 μM, all other compounds 30 μM, FIG. 11B. It counts as biochemical, sheep. The protocol:
The compounds were present at the indicated concentrations and the concentration causing half-maximal stimulation is shown as the EC50.
Dynamin I (50 nM) GTPase stimulation was performed in the absence of the detergent Tween-80 (and in the absence of any known activators such as PS liposomes, nanotubes or microtubules). […] The GTPase activity of dynamin I (dynI; 200 nM) was measured in the absence of lipid activators (and in the presence of standard Tween-80 at 0.06%).
A compound (whether a dynamin inhibitor or not) can be identified as a dynamin ring stabilizer by assaying for its capacity to promote accumulation of dynamin rings and/or to inhibit disassembly of dynamin rings. […] GTPase activity of dynamin or dynamin rings can be determined by any conventionally known method (e.g., see Quan and Robinson. 2005). Such conditions include: (a) the absence of a helix assembly template such as liposomes, microtubules or lipid nanotubes, and (b) higher concentrations of dynamin than normally required for detecting template stimulated activity, typically 50-500 nM dynamin instead of 1-20 nM. Thus, ring stabilizer activity can be identified by the ability to stimulate the GTPase activity of full length dynamin in the absence of other stimulatory factors (such as PS liposomes, microtubules or nanotubes). Additional defining characteristics are available but are not essential if the first condition has been met. One such additional characteristic of ring stabilizer activity is that the stimulated activity occurs after a lag phase of a few minutes, rather than being an immediate activation in vitro. […] Such conditions typically mean utilising 50-200 nM dynamin in the absence of a template as distinct from higher concentrations where self-assembly is known to occur without the addition of a dynamin ring stabilizer.
Next, a time course experiment of Bis-T-23 stimulation of dynamin GTPase (FIG. 3) was conducted. […] The lag phase is thought to indicate the time required for dynamin to assemble as rings.

Assay [1] concerns truncated dynamin I construct known as GG2. Kind of assay: Basal GTPase activity of assembly-incompetent dynamin construct GG2. The settings on record: FIG. 5. It counts as biochemical. The text has this: FIG. 5 is a graph showing the basal GTPase activity of the truncated dynamin I construct known as GG2, containing only the GTPase domain linked to a small part of the GED domain (Chappie et al 2009). Unlike full length dynamin this construct is known to be unable to self-assemble or to form rings. Bis-T-22 and -23 and imminodyn-22 have no effect on the basal activity of this assembly-incompetent construct.
To verify that ring stabilizers require dynamin oligomerisation, a recombinant form of dynamin, called GG-2, which is dimeric yet is unable to self-associate into higher order oligomers (Chappie et al 2009) was tested. Ring stabilizers are unable to stimulate the basal activity of such constructs (FIG. 5).

The target of a further assay is F-actin. In words: Actin co-sedimentation assay, dynamin-F-actin binding (Scatchard plot). To be noted: 5 μM F-actin, centrifugation at 100,000×g, FIG. 14. The protocol:
Increasing concentrations of dynamin (free) were added to 5 μM of F-actin. After centrifugation at 100,000×g proteins were separated on SDS-PAGE and bands were analyzed using densitometry.
To determine whether dynamin affects the actin cytoskeleton, the question of whether dynamin might directly bind filamentous actin (F-actin) was tested. In particular, an actin co-sedimentation assay was performed in which F-actin sediments under high-speed centrifugation. If dynamin interacts with F-actin it would be expected to co-sediment, and thus be present in the pellet fraction. In the presence of F-actin, but not in its absence, the majority of dynamin was found in the pellet (FIG. 12, lanes 2 and 14). […] The Kd of dynamin for actin was approximately 0.4 μM, which is similar to the affinities of other actin binding proteins such as α-actinin 4 for actin (Weins et al. 2005).
Next, the actin binding site was mapped to a region between amino acids 399 and 444 amino acids of dynamin II (dyn2) (FIG. 13). As predicted for an actin binding domain (Van et al. 1996), this region contains several positively charged amino acids conserved in all dynamin gene products from yeast to mammals. It is also alternatively spliced within different mammalian dynamin isoforms (called variant a and b in dynamins I and II) (see FIG. 13, SEQ ID No. 1-4). Site-directed mutagenesis was performed on conserved, charged residues within this actin binding domain to generate the putative ‘loss of function’ mutants, dynK/E (SEQ ID No. 9) and dynK/A (SEQ ID No. 10), and a putative ‘gain of function’ mutant, dynE/K (SEQ ID No. 11) (FIG. 13). […] All three mutant proteins had wild-type kinetic properties with respect to the basal and stimulated rate of GTP hydrolysis, indicating proper folding.

Take `O=C(N/N=C/c1ccc(O)c(O)c1)c1cc2ccccc2cc1O` [Dynasore, 3-hydroxynaphthalene-2-carboxylic acid (3,4-dihydroxybenzylidene) hydrazide, reference compound]: at full length dynamin I (Dynamin I 50 nM, no Tween-80, no activators, FIG. 11A), the “stimulation of basal dynamin GTPase activity in the absence of Tween-80” value is recorded as “stimulated basal dynamin GTPase activity to similar extents as Bis-T-23”. Besides, at full length dynamin I, the “stimulation of basal dynamin GTPase activity in the presence of Tween-80” value was “failed to stimulate basal GTPase activity”.

`O=C(N/N=C/c1cc(O)c(O)cc1O)c1cc2ccccc2cc1O` [Dyngo-4a]: at full length dynamin I, the “stimulation of basal dynamin GTPase activity in the presence of Tween-80” value was “effective”.

With `N=c1oc2c(O)cccc2cc1C(=O)NCCCNC(=O)c1cc2cccc(O)c2oc1=N` [Iminodyn 20], the ring stabilizer activity entry on full length dynamin I (absence of PS, Table 2) is given as “no ring stabilizer activity”.

`N=c1oc2c(O)c(O)ccc2cc1C(=O)NCCCNC(=O)c1cc2ccc(O)c(O)c2oc1=N` [Iminodyn 22]: in assay [1], the “effect on basal GTPase activity of GG2” value is reported as “no effect”.

As to “dynE/K: ‘gain of function’ dynamin mutant in the actin binding domain (SEQ ID No. 11) (RTGLFTPDLAFEAIVKKQVVKLKKPCLKCVDLVIQKLISTVRQCTS; listed as Mus musculus)”, the Kd at F-actin is 30 nM.

In the case of “dynK/A: ‘loss of function’ dynamin mutant in the actin binding domain (SEQ ID No. 10) (RTGLFTPDLAFEAIVAAQVVALAEPCLACVDLVIQELISTVRQCTS; listed as Mus musculus)”, the Kd on F-actin was 2800 nM.

On F-actin, “dynK/E: ‘loss of function’ dynamin mutant in the actin binding domain (SEQ ID No. 9) (RTGLFTPDLAFEAIVEEQVVELEEPCLECVDLVIQELISTVRQCTS; listed as Mus musculus)” registered a dissociation constant (Kd) of 1700 nM. Against the preceding compound, the Kd is about 1.6-fold lower.

Source of the values: US8809386B2, “Use of dynamin ring stabilizers” (Children's Medical Research Institute, priority 2009, dated 2014).
